# Reference: the supplement of paper PMC10331698
# ± gives the standard deviation of the averaged measurements.
# What was measured:
# Experiment in all cases: level (log10 ratio to DMSO vehicle control); higher = higher biomarker level / cell amount than vehicle control
# Conditions in all cases: in DMSO
# [1] = compound: O=C(O)C(F)(F)C(F)(F)C(F)(F)C(F)(F)C(F)(F)C(F)(F)C(F)(F)C(F)(F)Cl [9-Chloro-perfluorononanoic acid]
# Experimental: (§1)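 BioMAP Diversity Plus panel of 12 human primary cell co-culture systems (3C, 4H, LPS, SAg, BT, BF4T, BE3C, CASM3C, HDF3CGF, KF3CT, MyoF, Mphg). Compounds were added 1 h before stimulation and left for 24 h (MyoF 48 h; BT 72 h for soluble read-outs or 6 d for IgG). Biomarkers were read by ELISA, cytotoxicity by SRB, PBMC viability and proliferation by Alamar Blue. Each well value was divided by the mean of 8 DMSO control wells on the same plate and log10 transformed; duplicate blinded samples were tested at 4 concentrations.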
# 1H,1H-Heptafluorobutanol = compound: OCC(F)(F)C(F)(F)C(F)(F)F [1H,1H-Heptafluorobutanol]
# Experimental: as §1
# [2] = compound: C=C(C)C(=O)OCC(F)(F)C(F)(F)C(F)(F)C(F)(F)C(F)(F)C(F)(F)C(F)(F)F
# Experimental: as §1
# Perfluorohexanoic acid = compound: O=C(O)C(F)(F)C(F)(F)C(F)(F)C(F)(F)C(F)(F)F [Perfluorohexanoic acid]
# Experimental: as §1
# [3] = compound: O=S(=O)(O)C(F)(F)C(F)(F)C(F)(F)C(F)(F)C(F)(F)C(F)(F)C(F)(F)C(F)(F)F [Perfluorooctanesulfonic acid]
# Experimental: as §1
# [4] = compound: FC(F)(F)C(F)(F)C(F)(F)C(F)(F)C(F)(F)C(F)(F)C(F)(F)CCI [1-Iodo-1H,1H,2H,2H-perfluorononane]
# Experimental: as §1
# [5] = compound: O=P(O)(O)CCC(F)(F)C(F)(F)C(F)(F)C(F)(F)C(F)(F)C(F)(F)C(F)(F)C(F)(F)F [((Perfluorooctyl)ethyl)phosphonic acid]
# Experimental: as §1
test system,measurement,setting,value
3C:Proliferation,level (log10),[1]; 6700 nM,0.016 ± 0.079
same,level (log10),[1]; 20000 nM,0.019 ± 0.041
same,level (log10),"1H,1H-Heptafluorobutanol; 6700 nM",0.0075 ± 0.005
same,level (log10),"1H,1H-Heptafluorobutanol; 20000 nM",0.02 ± 0.025
same,level (log10),"1H,1H-Heptafluorobutanol; 60000 nM",-0.0595 ± 0.005
same,level (log10),[2]; 6700 nM,-0.0365 ± 0.039
same,level (log10),[2]; 20000 nM,-0.0595 ± 0.037
same,level (log10),Perfluorohexanoic acid; 6700 nM,-0.0055 ± 0.012
same,level (log10),Perfluorohexanoic acid; 20000 nM,-0.006 ± 0.0028
same,level (log10),Perfluorohexanoic acid; 60000 nM,-0.01 ± 0.04
same,level (log10),[3]; 6700 nM,0.0055 ± 0.037
same,level (log10),[3]; 20000 nM,0.0115 ± 0.036
same,level (log10),[3]; 60000 nM,-0.022 ± 0.044
same,level (log10),[4]; 6700 nM,-0.019 ± 0.0085
same,level (log10),[4]; 20000 nM,-0.027 ± 0.0057
same,level (log10),[5]; 6700 nM,-0.0505 ± 0.019
same,level (log10),[5]; 20000 nM,-0.172 ± 0.071
same,level (log10),[5]; 60000 nM,-0.481 ± 0.18
3C:SRB,level (log10),[1]; 6700 nM,-0.0005 ± 0.005
same,level (log10),[1]; 20000 nM,-0.0165 ± 0.0035
same,level (log10),"1H,1H-Heptafluorobutanol; 6700 nM",-0.0095 ± 0.012
same,level (log10),"1H,1H-Heptafluorobutanol; 20000 nM",0.001 ± 0.0085
same,level (log10),"1H,1H-Heptafluorobutanol; 60000 nM",-0.001 ± 0.0071
same,level (log10),[2]; 6700 nM,0.0095 ± 0.015
same,level (log10),[2]; 20000 nM,-0.0105 ± 0.022
same,level (log10),Perfluorohexanoic acid; 6700 nM,-0.0065 ± 0.0078
same,level (log10),Perfluorohexanoic acid; 20000 nM,-0.011 ± 0.0057
same,level (log10),Perfluorohexanoic acid; 60000 nM,-0.001 ± 0.0028
same,level (log10),[3]; 6700 nM,0.018 ± 0.0042
same,level (log10),[3]; 20000 nM,-0.008 ± 0.0099
same,level (log10),[3]; 60000 nM,-0.0625 ± 0.015
same,level (log10),[4]; 6700 nM,0.0125 ± 0.015
same,level (log10),[4]; 20000 nM,0.0295 ± 0.03
same,level (log10),[5]; 6700 nM,0.01 ± 0.016
same,level (log10),[5]; 20000 nM,0.001 ± 0.016
same,level (log10),[5]; 60000 nM,-0.078 ± 0.045
4H:CCL2/MCP-1,level (log10),[1]; 6700 nM,-0.001 ± 0.014
same,level (log10),[1]; 20000 nM,-0.0245 ± 0.0035
same,level (log10),"1H,1H-Heptafluorobutanol; 6700 nM",0.0015 ± 0.0035
same,level (log10),"1H,1H-Heptafluorobutanol; 20000 nM",-0.0025 ± 0.00071
same,level (log10),"1H,1H-Heptafluorobutanol; 60000 nM",0.0125 ± 0.026
same,level (log10),[2]; 6700 nM,-0.0415 ± 0.0092
same,level (log10),[2]; 20000 nM,-0.005 ± 0.061
same,level (log10),Perfluorohexanoic acid; 6700 nM,-0.0105 ± 0.00071
same,level (log10),Perfluorohexanoic acid; 20000 nM,-0.027 ± 0.0071
same,level (log10),Perfluorohexanoic acid; 60000 nM,0.012 ± 0.021
same,level (log10),[3]; 6700 nM,-0.001 ± 0.0085
same,level (log10),[3]; 20000 nM,-0.0275 ± 0.021
same,level (log10),[3]; 60000 nM,-0.0255 ± 0.005
same,level (log10),[4]; 6700 nM,-0.0175 ± 0.019
same,level (log10),[4]; 20000 nM,0.0395 ± 0.1
same,level (log10),[5]; 6700 nM,-0.01 ± 0.0042
same,level (log10),[5]; 20000 nM,-0.0135 ± 0.022
same,level (log10),[5]; 60000 nM,0.004 ± 0.042
4H:CCL26/Eotaxin-3,level (log10),[1]; 6700 nM,-0.04 ± 0.011
same,level (log10),[1]; 20000 nM,0.016 ± 0.037
same,level (log10),"1H,1H-Heptafluorobutanol; 6700 nM",0.017 ± 0.03
same,level (log10),"1H,1H-Heptafluorobutanol; 20000 nM",0.01 ± 0.014
same,level (log10),"1H,1H-Heptafluorobutanol; 60000 nM",0.0255 ± 0.021
same,level (log10),[2]; 6700 nM,0.0385 ± 0.043
same,level (log10),[2]; 20000 nM,0.0315 ± 0.047
same,level (log10),Perfluorohexanoic acid; 6700 nM,0.0005 ± 0.005
same,level (log10),Perfluorohexanoic acid; 20000 nM,-0.004 ± 0.0099
same,level (log10),Perfluorohexanoic acid; 60000 nM,-0.015 ± 0.0071
same,level (log10),[3]; 6700 nM,-0.014 ± 0.0014
same,level (log10),[3]; 20000 nM,-0.032 ± 0.0028
same,level (log10),[3]; 60000 nM,-0.0595 ± 0.0064
same,level (log10),[4]; 6700 nM,0.018 ± 0.0057
same,level (log10),[4]; 20000 nM,-0.004 ± 0.028
same,level (log10),[5]; 6700 nM,-0.011 ± 0.0085
same,level (log10),[5]; 20000 nM,-0.025 ± 0.0057
same,level (log10),[5]; 60000 nM,-0.108 ± 0.033
